One assay deals with Pseudomonas aeruginosa. Put plainly: Antimicrobial activity against gram negative Pseudomonas aeruginosa at a dose of 120 ug. The assay is classed as functional.
The subject of the next assay is P388. The assay is described as follows: In vitro cytotoxic activity against mouse leukemia (P388 ) cell line. Type of assay: functional, cell-based.
The subject of the next assay is Bacillus subtilis. Put plainly: Antimicrobial activity against gram positive Bacillus subtilis at a dose of 120 ug. Type of assay: functional.
The test system of another assay is Trichophyton benhamiae. Put plainly: Antimicrobial activity against Trichophyton mentagrophytes fungus at a dose of 120 ug. Type of assay: functional.
The next assay concerns Amorphotheca resinae. The assay is described as follows: Antimicrobial activity against Cladosporium resinae fungus at a dose of 120 ug. The assay is classed as functional.
In assay [1] the test system is Candida albicans. Put plainly: Minimum inhibitory concentration against Candida albicans fungus at a dose of 120 ug. The assay is classed as functional.
The subject of the next assay is Escherichia coli. Put plainly: Antimicrobial activity against gram negative Escherichia coli at a dose of 120 ug. Type of assay: functional.
Assay [2] relates to BSC-1. The assay is described as follows: In vitro cytotoxic activity against non-malignant african green monkey kidney cell-line (BSC-1); ranges from 3.5-4.5 mm. The assay is classed as functional, Cercopithecidae.
In assay [3] the test system is Candida albicans. The assay is described as follows: Antimicrobial activity against Candida albicans fungus at a dose of 120 ug. The assay is classed as functional.
The subject of assay [4] is CHO. The assay is described as follows: In vitro cytotoxic activity towards DNA-double strand break repair deficient Chinese Hamster Ovary (CHO) cell-line EM9. The assay is classed as functional, cell-based. The note with it: Cricetulus griseus.
The test system of assay [5] is BSC-1. Put plainly: In vitro cytotoxic activity against non-malignant african green monkey kidney cell-line (BSC-1); ranges from 4.5-5 mm. Type of assay: functional, Cercopithecidae.
The subject of assay [6] is Candida albicans. The assay is described as follows: Antimicrobial activity against Candida albicans fungus at a dose of 120 microg. Type of assay: functional.
Another assay has as its system HCT-116. The assay is described as follows: In vitro cytotoxic activity against human colon (HCT116) cell line. The assay is classed as functional, cell-based.
Another assay relates to MCF7. Put plainly: In vitro cytotoxic activity against human breast (MCF-7) cell line. The assay is classed as functional, cell-based.
In assay [7] the test system is CHO. The assay is described as follows: In vitro cytotoxic activity against DNA-double strand break repair deficient Chinese Hamster Ovary (CHO) cell-line xrs-6. The assay is classed as functional, cell-based. The note with it: Cricetulus griseus.
Assay [8] has as its system CHO. Put plainly: Hypersensitivity Factor (HF2) towards DNA-double strand break repair deficient Chinese Hamster Ovary (CHO) cell-line EM9 versus wild type BR1([…]). Type of assay: functional, Cricetulus griseus.
For assay [9], the system named is CHO. Put plainly: Hypersensitivity Factor(HF) against DNA-double strand break repair deficient Chinese Hamster Ovary (CHO) cell-line xrs-6 versus wild type BR1(IC50 BRI/IC50 xrs-6). The assay is classed as functional, Cricetulus griseus.
Assay [10] relates to CHO. The assay is described as follows: Hypersensitivity Factor(HF) towards DNA-double strand break repair deficient Chinese Hamster Ovary (CHO) cell-line xrs-6 versus wild type BR1(IC50 BRI/IC50 xrs-6). Type of assay: functional, Cricetulus griseus.
The subject of assay [11] is CHO. The assay is described as follows: In vitro cytotoxic activity against DNA-double strand break repair deficient Chinese Hamster Ovary (CHO) cell-line EM9. The assay is classed as functional, cell-based. The settings on record: Cricetulus griseus.
For assay [12], the system named is Candida albicans. The assay is described as follows: Minimum inhibitory concentration against Candida albicans fungus at a dose of 120 microg. Type of assay: functional.

In brackets after ≈: the same amount, converted by molar mass.

The record followed here is ChEMBL document CHEMBL1153679, “Structural requirements for biological activity of the marine alkaloid ascididemin” (Bioorg Med Chem Lett, 1995).

For the compound `Cc1c2c(nc3ccccc13)C(=O)c1ccccc1C2=O`, the Excess zone radius was determined as 0 mm with Pseudomonas aeruginosa; 3 mm in the assay with Bacillus subtilis; 0 mm in the assay on Trichophyton benhamiae; 0 mm with Amorphotheca resinae; 0 mm in the assay on Escherichia coli. The IC50 in the assay on P388 stood at 39000 nM. In the assay with Candida albicans [1], this compound yielded an MIC of 25 µg/mL (≈ 91.5 µM).

As to `Cc1c2c(nc3ccccc13)C(=O)c1cccnc1C2=O`, the Excess zone radius in the assay with Pseudomonas aeruginosa was determined as 0 mm; in the assay on BSC-1 [2] it was 3.5 mm; in the assay with Bacillus subtilis it was 10 mm; with Trichophyton benhamiae it was 0 mm; in the assay on Candida albicans [3], 1 mm; in the assay with Amorphotheca resinae it was 6 mm. The Excess zone radius in the assay on Escherichia coli was 0 mm. 56000 nM corresponded to half-maximal inhibition in the assay on P388 (IC50).

Regarding `O=C1c2cccnc2-c2nccc3c2c1nc1ccccc13` [ASCIDIDEMIN], the Excess zone radius in the assay with Pseudomonas aeruginosa was found to be 0 mm; in the assay with BSC-1 [5], 4.5 mm; in the assay on Candida albicans [6], 11 mm; in the assay with Bacillus subtilis, 14 mm; in the assay with Trichophyton benhamiae, 0 mm; in the assay on Amorphotheca resinae, 10 mm. The Excess zone radius in the assay on Escherichia coli is 10 mm. Also, the IC50 with CHO [4] came to 300 nM; in the assay on P388, 400 nM; with HCT-116 it was 300 nM; in the assay with MCF7, 300 nM; in the assay with CHO [7], 30 nM. The compound also returned an HF2 in the assay with CHO [8] of 1. Besides, in the assay with CHO [9], the HF was 10.

For the compound `O=C1c2ccccc2-c2nccc3c2c1nc1ccccc13` [BENZOSAMPANGINE], the Excess zone radius in the assay with Pseudomonas aeruginosa was 0 mm; in the assay on Bacillus subtilis, 8 mm; in the assay on Trichophyton benhamiae, 10 mm; in the assay with Candida albicans [3], 12 mm; in the assay on Amorphotheca resinae, 0 mm; with Escherichia coli it was 0 mm. This compound also displayed an HF with CHO [10] of 1. The IC50 in the assay with P388 was 1600 nM; in the assay with CHO [11], 18000 nM; in the assay on HCT-116 it was over 350000 nM; in the assay with MCF7 it was over 350000 nM; in the assay with CHO [7], 18000 nM. In the assay on CHO [8], this compound displayed an HF2 of 0.2. The MIC against Candida albicans [12] stood at 0.39 µg/mL (≈ 1.38 µM).
